Results as given in ChEMBL document CHEMBL3580586, “Novel azoles as potent and selective cannabinoid CB2 receptor agonists” (Bioorg Med Chem Lett, 2014).

Columns and labels:
[1] = species: Homo sapiens; assay: Selectivity ratio of Ki for human CB1 receptor to Ki for human CB2 receptor
[2] = molecular target: T1, Cannabinoid receptor 2 (Homo sapiens, UniProt P34972); assay: Displacement of [3H]CP55940 from human CB2 receptor expressed in CHO-K1 cell membrane by competitive displacement assay; format: cell membranes
[3] = molecular target: T2, Cannabinoid receptor 1 (Homo sapiens, UniProt P21554); assay: Displacement of [3H]CP55940 from human CB1 receptor expressed in CHO-K1 cell membrane by competitive displacement assay; format: cell membranes
[4] = molecular target: T1, Cannabinoid receptor 2; assay: Agonist activity at human CB2 receptor expressed in CHO-K1 cells assessed as inhibition of forskolin-stimulated cAMP production; format: functional, cell-based
[5] = species: Homo sapiens; assay: Selectivity ratio of EC50 for human CB1 receptor to EC50 for human CB2 receptor
[6] = molecular target: T2, Cannabinoid receptor 1; assay: Agonist activity at human CB1 receptor expressed in CHO-K1 cells assessed as inhibition of forskolin-stimulated cAMP production; format: functional, cell-based
[7] = Antioxidant activity assessed as inhibition of lipid peroxidation; format: physicochemical

T2 sequence (P21554 whole entry): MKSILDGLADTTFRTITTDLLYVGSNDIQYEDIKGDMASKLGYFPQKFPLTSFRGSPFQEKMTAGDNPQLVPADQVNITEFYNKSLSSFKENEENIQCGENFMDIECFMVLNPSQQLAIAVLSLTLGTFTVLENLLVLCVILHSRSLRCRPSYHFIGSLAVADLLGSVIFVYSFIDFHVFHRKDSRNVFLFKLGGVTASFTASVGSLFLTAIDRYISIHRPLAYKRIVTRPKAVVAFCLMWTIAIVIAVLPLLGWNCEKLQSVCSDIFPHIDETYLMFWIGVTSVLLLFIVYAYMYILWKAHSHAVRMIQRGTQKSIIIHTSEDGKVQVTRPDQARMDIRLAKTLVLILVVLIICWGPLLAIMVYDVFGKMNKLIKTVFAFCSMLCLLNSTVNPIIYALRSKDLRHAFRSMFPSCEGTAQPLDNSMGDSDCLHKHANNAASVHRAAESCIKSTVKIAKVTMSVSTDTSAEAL
T1 sequence (P34972 whole entry): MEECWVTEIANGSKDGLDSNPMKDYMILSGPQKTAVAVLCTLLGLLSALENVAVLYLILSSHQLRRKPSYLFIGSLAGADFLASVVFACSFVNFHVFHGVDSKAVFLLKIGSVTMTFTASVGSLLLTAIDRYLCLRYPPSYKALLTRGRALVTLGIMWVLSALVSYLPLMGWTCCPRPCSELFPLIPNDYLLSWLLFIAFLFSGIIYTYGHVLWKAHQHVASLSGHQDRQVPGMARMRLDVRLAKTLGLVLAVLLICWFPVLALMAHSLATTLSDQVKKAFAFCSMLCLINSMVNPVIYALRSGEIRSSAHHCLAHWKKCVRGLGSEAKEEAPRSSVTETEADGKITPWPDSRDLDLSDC

Structure (SMILES)	Selectivity ratio [1]	Ki [2] [nM]	Ki ([3]; read-out: Ki) [nM]	EC50 [4] [nM]	Selectivity ratio [5]	EC50 [6] [nM]	IC50 [7] [nM]	Ki ([3]; cho-k1)
CC(C)(C)c1cc(-c2csc(C3(N)CCOCC3)n2)cc(C(C)(C)C)c1O	2.6	2700	6960					
CC(C)(C)c1cc(-c2csc(C3(N4CCCCC4)CCOCC3)n2)cc(C(C)(C)C)c1O	43	49.7	2170	40	56	2260		
CCN(CC)C1(c2nc(-c3cc(C(C)(C)C)c(O)c(C(C)(C)C)c3)cs2)CCOCC1	43	77.4	3300	72	56	4040		
CN(C)C1(c2nc(-c3cc(C(C)(C)C)cc(C(C)(C)C)c3)cs2)CCOCC1	37	127	4710					
CN(C)C1(c2nc(-c3cc(C(C)(C)C)c(O)c(C(C)(C)C)c3)cs2)CCSCC1	29	81.7	2340	59.1	40	2380		
CNC1(c2nc(-c3cc(C(C)(C)C)c(O)c(C(C)(C)C)c3)cs2)CCOCC1	16	144	2270					
CN(C)C1(c2nc(-c3cc(C(C)(C)C)c(O)c(C(C)(C)C)c3)cs2)CCOCC1	30	29.4	857	42	64	2670	500	
CC(C)(C)c1cc(-c2csc(C3(N4CCOCC4)CCOCC3)n2)cc(C(C)(C)C)c1O		177						Not Active
CN(C)Cc1nc(-c2cc(C(C)(C)C)c(O)c(C(C)(C)C)c2)cs1		6240						Not Active
CN(C)C1(c2nc(-c3cc(C(C)(C)C)c(O)c(C(C)(C)C)c3)co2)CCOCC1	16	51.6	817	43.6	32	1400		
CN1CCCCC1Cn1cc(C(=O)c2cc([N+](=O)[O-])ccc2I)c2ccccc21 (stereo not given)	95	21.8	2080	16.4	63	1040		
